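Test compounds were applied to cells in 96-well plates for 48 hours at 5 doses. At the GI50, growth is halved.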 The source made the active and inactive calls. Rule as the data show it: active = GI50 up to about 1.1 µM and inactive = higher.
Key:
Experiment in all cases: DTP human tumour cell line panel, 48 h
EKVX = tested on: EKVX
HCT-15 = tested on: HCT-15
HOP-62 = tested on: HOP-62
HT-29 = tested on: HT-29
K562 = tested on: K562
KM-20L2 = tested on: KM-20L2
LXFL 529 = tested on: LXFL 529
NCI-H522 = tested on: NCI-H522
OVCAR-3 = tested on: OVCAR-3
SK-MEL-2 = tested on: SK-MEL-2
SNB-75 = tested on: SNB-75
TK-10 = tested on: TK-10
UO-31 = tested on: UO-31
HOP-92 = tested on: HOP-92
UACC-257 = tested on: UACC-257
DU-145 = tested on: DU-145
MDA-MB-435 = tested on: MDA-MB-435
MDA-N = tested on: MDA-N
PC-3 = tested on: PC-3

| SMILES | GI50 (EKVX) | GI50 (HCT-15) | GI50 (HOP-62) | GI50 (HT-29) | GI50 (K562) | GI50 (KM-20L2) | GI50 (LXFL 529) | GI50 (NCI-H522) | GI50 (OVCAR-3) | GI50 (SK-MEL-2) | GI50 (SNB-75) | GI50 (TK-10) | GI50 (UO-31) | GI50 (HOP-92) | GI50 (UACC-257) | GI50 (DU-145) | GI50 (MDA-MB-435) | GI50 (MDA-N) | GI50 (PC-3) |
| --- | --- | --- | --- | --- | --- | --- | --- | --- | --- | --- | --- | --- | --- | --- | --- | --- | --- | --- | --- |
| COC(=O)[C@]12CSCN1C(=O)C(C(C)=O)=NN2C(=O)[C@](OC)(c1ccccc1)C(F)(F)F | > 100 µM (inactive) | > 100 µM | > 100 µM (inactive) | > 100 µM (inactive) | > 100 µM (inactive) | > 100 µM (inactive) | > 100 µM (inactive) | 88.7 µM (inactive) | > 100 µM (inactive) | > 100 µM (inactive) | 8.17 µM (inactive) | > 100 µM (inactive) | > 100 µM (inactive) |  |  |  |  |  |  |
| N#Cc1cc([N+](=O)[O-])ccc1NC(=O)/C(=N/N)C(C(=O)c1ccc(Cl)c(Cl)c1)C1OC(=O)c2ccccc21 (centres undefined) | 45 µM (inactive) | 42.2 µM | 54.6 µM (inactive) | 81.3 µM (inactive) | 24.3 µM (inactive) |  | 43 µM (inactive) | 26.1 µM (inactive) | 90.8 µM (inactive) | 72.3 µM (inactive) |  |  | 49.9 µM (inactive) | 8.81 µM (inactive) | 84.7 µM (inactive) |  |  |  |  |
| CC(=O)OC(C)(C)C1CCC(C)(C(O)COc2ccc(CCNC(=O)c3ccccc3)cc2)O1 (centres undefined) |  | 46 µM | 43.2 µM (inactive) | > 100 µM (inactive) |  | 73.1 µM (inactive) | 25.1 µM (inactive) | 51.2 µM (inactive) | 27.6 µM (inactive) | > 100 µM (inactive) | 91.6 µM (inactive) | 63.8 µM (inactive) | 33.7 µM (inactive) | > 100 µM (inactive) | > 100 µM (inactive) |  |  |  |  |
| COC(=O)/C(=C/c1ccc(OC)cc1)C(C(=O)O)=C1CCCCC1 | > 100 µM (inactive) | > 100 µM | > 100 µM (inactive) | > 100 µM (inactive) | > 100 µM (inactive) | > 100 µM (inactive) | > 100 µM (inactive) | > 100 µM (inactive) |  | > 100 µM (inactive) | > 100 µM (inactive) | > 100 µM (inactive) | > 100 µM (inactive) | > 100 µM (inactive) | > 100 µM (inactive) |  |  |  |  |
| CN(C)c1ccc(/C=N/C23CC4CC(CC(C4)C2)C3)cc1 | > 100 µM (inactive) | > 100 µM | > 100 µM (inactive) | > 100 µM (inactive) | > 100 µM (inactive) | > 100 µM (inactive) |  | > 100 µM (inactive) | > 100 µM (inactive) | > 100 µM (inactive) | > 10 µM (inactive) | > 100 µM (inactive) | > 100 µM (inactive) |  | > 100 µM (inactive) |  |  |  |  |
| Cc1ccc(NC(=O)/C(=N/NC(=O)C[N+](C)(C)C)c2nc3ccccc3nc2O)cc1 | > 100 µM (inactive) | 81.1 µM | > 100 µM (inactive) | 91.4 µM (inactive) |  | > 100 µM (inactive) | > 100 µM (inactive) |  | > 100 µM (inactive) | > 100 µM (inactive) | > 100 µM (inactive) | > 100 µM (inactive) | > 100 µM (inactive) | > 100 µM (inactive) | > 100 µM (inactive) |  |  |  |  |
| Brc1ccc(N2C[N+](c3ccc(Br)cc3)=NC(c3ccccc3)=N2)cc1.[O-][Cl+3]([O-])([O-])[O-] | 33.9 µM (inactive) | > 100 µM | 74.1 µM (inactive) | 36.7 µM (inactive) | 31.3 µM (inactive) | 70.5 µM (inactive) | 45.2 µM (inactive) | 36 µM (inactive) |  | 46.6 µM (inactive) | > 100 µM (inactive) | > 100 µM (inactive) | > 100 µM (inactive) | 77.1 µM (inactive) | > 100 µM (inactive) |  |  |  |  |
| CS(=O)(=O)c1ccc(-c2cc(-c3ccc(S(C)(=O)=O)cc3)[n+](-c3cc(-c4ccccc4)c([O-])c(-c4ccccc4)c3)c(-c3ccc(S(C)(=O)=O)cc3)c2)cc1 | > 100 µM (inactive) | > 100 µM | > 100 µM (inactive) | > 100 µM (inactive) | > 100 µM (inactive) | > 100 µM (inactive) | > 100 µM (inactive) | > 100 µM (inactive) | > 100 µM (inactive) | > 100 µM (inactive) |  | > 100 µM (inactive) | > 100 µM (inactive) |  | 38.5 µM (inactive) |  |  |  |  |
| On1c(-c2ccccc2)c(-c2ccccc2N2CCCC2)c2ccccc21 | > 100 µM (inactive) | > 100 µM | > 100 µM (inactive) | > 100 µM (inactive) | > 100 µM (inactive) | > 100 µM (inactive) |  | > 100 µM (inactive) | > 100 µM (inactive) | > 100 µM (inactive) | > 100 µM (inactive) | > 100 µM (inactive) |  | > 100 µM (inactive) | > 100 µM (inactive) |  |  |  |  |
| COc1ccc(OCC(=O)O)c2c1CCC(C)C2=O (centres undefined) | > 100 µM (inactive) | > 100 µM | > 100 µM (inactive) | > 100 µM (inactive) | > 100 µM (inactive) | > 100 µM (inactive) |  | > 100 µM (inactive) | > 100 µM (inactive) | > 100 µM (inactive) |  | > 100 µM (inactive) | > 100 µM (inactive) |  | > 100 µM (inactive) |  |  |  |  |
| CC(=O)O[C@H]1C(=O)[C@@]2(C)C(C(OC(=O)c3ccccc3)[C@]3(O)CC(OC(=O)C(O)C(NC(=O)c4ccc(C)cc4)c4ccccc4)C(C)=C1C3(C)C)[C@]1(OC(C)=O)CO[C@@H]1C[C@@H]2O (some centres undefined) | 0.111 µM (active) | 0.173 µM | 0.00986 µM (active) | < 0.0025 µM (active) | < 0.0025 µM (active) | 0.00305 µM (active) | 0.00424 µM (active) | < 0.0025 µM (active) | < 0.0025 µM (active) | < 0.0025 µM (active) | 0.0045 µM (active) | 0.0588 µM (active) | 0.826 µM (active) |  | 0.00708 µM (active) |  |  |  |  |
| CC(=O)OCC1OC(Sc2ccccn2)C=CC1OC(C)=O (centres undefined) | > 100 µM (inactive) |  | > 100 µM (inactive) | > 100 µM (inactive) | > 100 µM (inactive) | > 100 µM (inactive) | > 100 µM (inactive) | > 100 µM (inactive) | > 100 µM (inactive) |  | > 100 µM (inactive) | > 100 µM (inactive) | > 100 µM (inactive) | > 100 µM (inactive) | > 100 µM (inactive) |  |  |  |  |
| CC(=O)NNc1nc(C)c(C(=O)/C=C/c2ccc(Cl)c(Cl)c2)s1 | > 100 µM (inactive) | > 100 µM | > 100 µM (inactive) | > 100 µM (inactive) | > 100 µM (inactive) | > 100 µM (inactive) |  | 95.9 µM (inactive) | > 100 µM (inactive) | > 100 µM (inactive) | > 100 µM (inactive) | > 100 µM (inactive) | > 100 µM (inactive) | > 100 µM (inactive) | > 100 µM (inactive) |  |  |  |  |
| COc1cc([C@H]2c3cc4c(cc3O[C@@]3(O)COC(=O)[C@@H]23)OCO4)cc(OC)c1OC | > 100 µM (inactive) | > 100 µM | > 100 µM (inactive) | > 100 µM (inactive) | > 100 µM (inactive) | > 100 µM (inactive) |  | > 100 µM (inactive) | > 100 µM (inactive) | > 100 µM (inactive) | > 100 µM (inactive) | > 100 µM (inactive) | > 100 µM (inactive) | > 100 µM (inactive) | > 100 µM (inactive) | > 100 µM (inactive) | > 100 µM (inactive) | > 100 µM (inactive) | > 100 µM (inactive) |
